From article PMC7457965 (Bioorganic & Medicinal Chemistry, 2020)
Read-outs that look alike come from different tables or passages of the source.

Tests used:
ZIKV (MR766) = assay type: cell-based, Zika virus; conditions: read-out: ZIKV EC50
YFV (17D) = assay type: cell-based, Yellow Fever Virus; conditions: read-out: YFV EC50
DENV (New Guinea C) = assay type: cell-based, Dengue virus; conditions: read-out: DENV EC50: effective concentration showing 50% inhibition of virus-induced CPE
[1] = preliminary minimum tolerated dose; assay type: in vivo
Ebola (EBOV) virus [2] = conditions: cited from earlier work
human N7 (RNMT) MTase = human N7 (RNMT) MTase (Homo sapiens, UniProt O43148); assay type: biochemical; conditions: 50 µM
ZIKV NS5-MTase = ZIKV NS5-MTase (Zika virus, UniProt A0A024B7W1); experiment: radioactive filter-binding 2'-O-MTase assay, ZIKV; assay type: biochemical; conditions: 50 µM compound
DENV NS5-MTase = target: T1, DENV NS5-MTase (Dengue virus type 3, UniProt Q6YMS4); experiment: radioactive filter-binding 2'-O-MTase assay, DENV; assay type: biochemical, DENV-3; conditions: 50 µM compound
T1 sequence (Q6YMS4 2492-2753 limits assumed): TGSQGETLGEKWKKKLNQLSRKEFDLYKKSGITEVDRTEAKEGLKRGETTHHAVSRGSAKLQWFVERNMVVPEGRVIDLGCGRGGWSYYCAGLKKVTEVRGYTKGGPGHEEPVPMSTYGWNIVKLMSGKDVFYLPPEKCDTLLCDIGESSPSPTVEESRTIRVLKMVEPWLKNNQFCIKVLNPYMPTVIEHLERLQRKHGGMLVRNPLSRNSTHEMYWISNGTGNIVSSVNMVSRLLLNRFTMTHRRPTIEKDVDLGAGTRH

SARS = conditions: read-out: activity against SARS; cited from earlier work
Ebola (EBOV) virus [3] = assay type: cell-based; conditions: read-out: EC50 against EBOV

Chain of human N7 (RNMT) MTase (O43148 whole entry): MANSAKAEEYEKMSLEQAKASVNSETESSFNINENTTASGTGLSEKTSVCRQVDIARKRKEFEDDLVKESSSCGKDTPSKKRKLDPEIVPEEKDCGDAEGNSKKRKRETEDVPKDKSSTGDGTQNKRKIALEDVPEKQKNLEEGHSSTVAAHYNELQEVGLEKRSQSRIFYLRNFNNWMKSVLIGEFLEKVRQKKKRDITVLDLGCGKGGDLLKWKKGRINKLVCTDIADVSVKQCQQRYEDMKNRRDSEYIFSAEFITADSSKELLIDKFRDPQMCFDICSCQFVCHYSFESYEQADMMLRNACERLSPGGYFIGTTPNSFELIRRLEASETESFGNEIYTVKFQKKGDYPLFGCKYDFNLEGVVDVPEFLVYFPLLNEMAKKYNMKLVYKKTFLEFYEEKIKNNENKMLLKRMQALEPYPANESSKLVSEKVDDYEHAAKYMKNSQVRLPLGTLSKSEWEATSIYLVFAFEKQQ
Chain of ZIKV NS5-MTase (A0A024B7W1 2521-2785 limits assumed): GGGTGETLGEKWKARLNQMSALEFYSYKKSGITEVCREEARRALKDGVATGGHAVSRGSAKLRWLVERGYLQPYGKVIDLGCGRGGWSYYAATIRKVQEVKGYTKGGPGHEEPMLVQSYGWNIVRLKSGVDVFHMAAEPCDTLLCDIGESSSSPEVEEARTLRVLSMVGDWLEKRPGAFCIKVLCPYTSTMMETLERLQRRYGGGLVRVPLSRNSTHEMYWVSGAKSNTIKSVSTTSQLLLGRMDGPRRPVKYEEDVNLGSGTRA

Substance | EC50 (ZIKV (MR766)) [µM] | EC50 (YFV (17D)) [µM] | EC50 (DENV (New Guinea C)) [µM] | minimum tolerated dose (MTD) studies: no toxicity up to [1] [mgs/kg] | activity against Ebola (EBOV) virus (Ebola (EBOV) virus [2]) | EC50 (Ebola (EBOV) virus [2]; read-out: EC50 against Ebola (EBOV) virus) [µM] | inhibition of human N7 MTase activity (human N7 (RNMT) MTase) | Percent inhibition of ZIKV MTase (ZIKV NS5-MTase) | Percent inhibition of DENV MTase (DENV NS5-MTase) | EC50 (SARS) [µM] | EC50 (Ebola (EBOV) virus [3]) [µM]
2-((4-(2,4-dimethoxypyrimidine-5-yl)-1H-imidazol-1-yl) methoxy)ethan-1-ol [Compound 2] | > 76 | > 58 | > 50 |  |  |  |  |  |  |  | 
2-((4-(2-amino-4-methoxypyrimidin-5-yl)-1H-imidazol-1-yl) methoxy)ethan-1-ol [Compound 1] |  | 0.37 | 0.057 | ≥ 250 | active | 2.2 ± 0.3 | did not exhibit a significant inhibitory effect | did not exhibit a significant inhibitory effect | did not exhibit a significant inhibitory effect |  | 
2-((4-(2-amino-4-methoxypyrimidin-5-yl)-1H-imidazol-1-yl)methoxy)ethyl acetate [Compound 1-Ac] | > 100 | > 57 | 6.1 |  | active |  |  |  |  | 11.9 | 
2-((4–2,4-dimethoxypyrimidin-5-yl)-1H-imidazol-1-yl)methoxy) ethyl acetate [Compound 2-Ac] |  | > 58 | 19 |  |  |  |  |  |  |  | 8.2 ± 1.8
2-ethylbutyl ((2-((4-(2,4-dimethoxypyrimidin-5-yl)-1H-imidazol-1-yl)methoxy)ethoxy)-(phenoxy)-phosphoryl)alaninate [Compound 2-MG] | > 56 | > 53 | > 53 |  |  |  |  |  |  |  | 
2-ethylbutyl((2-((4-(2-amino-4-methoxypyrimidin-5-yl)-1H-imidazol-1-yl)methoxy)-ethoxy)-(phenoxy)phosphoryl)alaninate [Compound 1-MG] | > 31 | > 55 | > 57 |  | active |  |  |  |  |  | 
